Like-named read-outs stand apart in the source and are kept apart here.

Experiment [1] has as its system isolated rat liver mitochondria. Briefly: Uncoupling activity: increase in basal (state 4) oxygen consumption by oxygraphy. It counts as biochemical. The note with it: for Measured Uncoupling (% uncoupling ± SEM @ 100 μM): Table 1A, relative to ADP-stimulated respiration = 100%.
Experiment [2] has the same test system. Briefly: Residual functional capacity / inhibitory effect on ADP-stimulated (state 3) oxygen consumption. The class given is biochemical.
Where [3] appears, read: Suppl. Table 1, 100 μM, 2-3 mitochondrial preparations.
The mark [4] stands for this setting: test conc. 100 μM, increase in basal (state 4) oxygen consumption as % of average ADP-stimulated (state 3) rate in vehicle-treated mitochondria.
The mark [5] stands for this setting: test conc. 100 μM, functional capacity (state 3 minus state 4 rate) as % of vehicle-treated mitochondria.
Setting [6] is: test conc. 25 μM, increase in basal (state 4) oxygen consumption as % of average ADP-stimulated (state 3) rate in vehicle-treated mitochondria.
The mark [7] stands for this setting: test conc. 25 μM, functional capacity (state 3 minus state 4 rate) as % of vehicle-treated mitochondria.

On to `O=C(O)c1cc(O)c(O)c(O)c1` [gallic acid], for which the “Measured Uncoupling Activity (% uncoupling ± SEM @ 100 μM)” value in experiment [1] (setting [3]) was −2 ± 1 % uncoupling. The “Uncoupling (%)” value in experiment [1] (setting [4]) is given as −2 ± 1%. The “Inhibitory effect (%)” value in experiment [2] (test conc. 100 μM) is listed as 2%. Also, in experiment [2] (setting [5]), the “Residual capacity (%)” value was 98 ± 1%.

Consider `O=c1c(-c2ccc(O)cc2)coc2cc(O)cc(O)c12` [genistein], for which, in experiment [1] (setting [3]), the “Measured Uncoupling Activity (% uncoupling ± SEM @ 100 μM)” value amounted to 74 ± 4 % uncoupling. Moreover, the “Measured Uncoupling (% uncoupling ± SEM @ 100 μM)” value in experiment [1] (100 μM) was determined as 74 ± 4 % uncoupling. Further, the “Uncoupling (%)” value was 8 ± 0% in experiment [1] (setting [6]) and 74 ± 4% in experiment [1] (setting [4]). The entries for the “Inhibitory effect (%)” value in experiment [2] (test conc. 25 μM) and in experiment [2] (test conc. 100 μM) were 15% and 6%, respectively. The results for the “Residual capacity (%)” value in experiment [2] (setting [7]) and in experiment [2] (setting [5]) were 77 ± 1% and 20 ± 0%, respectively.

For the compound `COc1cc(/C=C/C(=O)c2ccc(O)cc2O)ccc1O` [homobutein], in experiment [1] (50 μM in 0.1% DMSO (FIG. 19)), the uncoupling activity entry was “partial uncoupling”. Moreover, the “Measured Uncoupling Activity (% uncoupling ± SEM @ 100 μM)” value in experiment [1] (setting [3]) is 56 ± 5 % uncoupling. Besides, the “Measured Uncoupling (% uncoupling ± SEM @ 100 μM)” value in experiment [1] (100 μM) was 56 ± 5 % uncoupling. The “Uncoupling (%)” value is given as 6 ± 0% in experiment [1] (setting [6]) and 56 ± 5% in experiment [1] (setting [4]). The “inhibitory effect on oxidative phosphorylation” value in experiment [2] (50 μM (FIG. 19)) is reported as “inhibition of ADP-stimulated consumption”. In addition, the “Inhibitory effect (%)” value in experiment [2] (test conc. 25 μM) stood at 15%; in experiment [2] (test conc. 100 μM), 22%. Further, the “Residual capacity (%)” value in experiment [2] (setting [7]) turned out to be 79 ± 7%; in experiment [2] (setting [5]), 22 ± 3%.

In the case of `Oc1ccc(O)cc1` [hydroquinone], the “Measured Uncoupling Activity (% uncoupling ± SEM @ 100 μM)” value in experiment [1] (setting [3]) was 0 ± 1 % uncoupling. Further, the “Uncoupling (%)” value in experiment [1] (setting [4]) is 0 ± 1%. For the same compound, in experiment [2] (test conc. 100 μM), the “Inhibitory effect (%)” value turned out to be 10%. In addition, in experiment [2] (setting [5]), the “Residual capacity (%)” value was found to be 90 ± 8%.

In the case of `O=c1c(O)c(-c2ccc(O)cc2O)oc2cc(O)cc(O)c12` [morin], the “Measured Uncoupling Activity (% uncoupling ± SEM @ 100 μM)” value in experiment [1] (setting [3]) turned out to be 1 ± 0 % uncoupling. For the same compound, the “Uncoupling (%)” value in experiment [1] (setting [4]) came to 1 ± 0%. In addition, the “inhibition of ADP-stimulated oxygen consumption” value in experiment [2] (screening at 100 μM) is listed as “inhibitory activity”. Moreover, in experiment [2] (test conc. 100 μM), the “Inhibitory effect (%)” value came out at 60%. Further, the “Residual capacity (%)” value in experiment [2] (setting [5]) was 39 ± 3%.

For the compound `O=c1c(O)c(-c2cc(O)c(O)c(O)c2)oc2cc(O)cc(O)c12` [myricetin], the “Measured Uncoupling Activity (% uncoupling ± SEM @ 100 μM)” value in experiment [1] (setting [3]) amounted to 11 ± 0 % uncoupling. For the same compound, the entries for the “Uncoupling (%)” value in experiment [1] (setting [6]) and in experiment [1] (setting [4]) were 6 ± 3% and 11 ± 0%, respectively. Further, the “Inhibitory effect (%)” value is recorded as 28% in experiment [2] (test conc. 25 μM) and 43% in experiment [2] (test conc. 100 μM). Also, the results for the “Residual capacity (%)” value in experiment [2] (setting [7]) and in experiment [2] (setting [5]) were 66 ± 2% and 46 ± 3%, respectively.

On to `Oc1ccccc1` [phenol], for which, in experiment [1], the “Measured Uncoupling Activity (% uncoupling ± SEM @ 100 μM)” value is 0 ± 0 % uncoupling and the “Uncoupling (%)” value was determined as 0 ± 0%. In experiment [2], the “Inhibitory effect (%)” value was determined as 4% and the “Residual capacity (%)” value worked out at 96 ± 4%.

Take `O=C(CCc1ccc(O)cc1)c1c(O)cc(O)cc1O` [phloretin]: in experiment [1] (setting [3]), the “Measured Uncoupling Activity (% uncoupling ± SEM @ 100 μM)” value was 15 ± 3 % uncoupling. The “Uncoupling (%)” value turned out to be 3 ± 1% in experiment [1] (setting [6]) and 15 ± 3% in experiment [1] (setting [4]). The entries for the “Inhibitory effect (%)” value in experiment [2] (test conc. 25 μM) and in experiment [2] (test conc. 100 μM) were 0% and 44%, respectively. For the same compound, the figures for the “Residual capacity (%)” value in experiment [2] (setting [7]) and in experiment [2] (setting [5]) were 99 ± 12% and 41 ± 17%, respectively.

On to `Oc1cc(O)cc(/C=C/c2ccc(O)c(O)c2)c1` [piceatannol (trans)], for which the “Uncoupling (%)” value in experiment [1] (setting [6]) worked out at 1 ± 1%; in experiment [1] (setting [4]), 5 ± 1%. Besides, the “Inhibitory effect (%)” value was 64% in experiment [2] (test conc. 25 μM) and 89% in experiment [2] (test conc. 100 μM). Besides, the “Residual capacity (%)” value in experiment [2] (setting [7]) was 35 ± 7%; in experiment [2] (setting [5]), 6 ± 3%.

For the compound `Oc1cccc(O)c1O` [pyrogallol], the “Measured Uncoupling Activity (% uncoupling ± SEM @ 100 μM)” value in experiment [1] (setting [3]) is given as 1 ± 1 % uncoupling. In addition, in experiment [1] (setting [4]), the “Uncoupling (%)” value is listed as 1 ± 1%. Moreover, in experiment [2] (test conc. 100 μM), the “Inhibitory effect (%)” value came to 16%. Besides, in experiment [2] (setting [5]), the “Residual capacity (%)” value stood at 83 ± 17%.
